Measured values as given in patent publication US11376232B2, “Vidofludimus for use in the treatment or prevention of viral diseases” (Immunic AG, priority 2020, dated 2022).
Where “and” joins values, the source holds several entries; their conditions need not be identical. Equal values may be shown once. Where a name gives a salt, the structure may show the parent alone. Read-outs that look alike come from different tables or passages of the source.

Legend:
SARS-CoV-2 [1] = type: cell-based
Auroroa-A kinases = molecular target: T1, Auroroa-A kinases (Homo sapiens, UniProt O14965); assay: Off-target activity on Aurora-A kinase; conditions: in contrast to leflunomide and teriflunomide
T1 sequence (O14965 1-403): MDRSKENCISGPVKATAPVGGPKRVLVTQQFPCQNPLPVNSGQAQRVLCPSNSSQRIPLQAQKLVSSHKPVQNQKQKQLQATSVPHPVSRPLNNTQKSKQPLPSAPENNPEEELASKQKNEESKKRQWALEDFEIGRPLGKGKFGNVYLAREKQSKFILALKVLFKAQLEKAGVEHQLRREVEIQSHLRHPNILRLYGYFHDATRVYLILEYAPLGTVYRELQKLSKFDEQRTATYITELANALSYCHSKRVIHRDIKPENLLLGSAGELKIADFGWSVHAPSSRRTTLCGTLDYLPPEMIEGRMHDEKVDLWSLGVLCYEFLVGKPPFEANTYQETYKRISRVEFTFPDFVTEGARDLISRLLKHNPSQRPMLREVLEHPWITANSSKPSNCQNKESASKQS

Human T-cells = assay: Proliferation assay of human T-cells (PHA-stimulated PBMCs, BrdU); type: cell-based; conditions: T-cell, PHA 20 μg/ml, 48 hours, BrdU ELISA
Description: Human peripheral blood mononuclear cells (PBMCs) were obtained from healthy volunteers and transferred to RPMI1640 cell culture medium containing 10% dialyzed fetal calf serum. 80.000 cells per well were pipetted into a 96-well plate and phytohemagglutinin (PHA) was added in phosphate buffered saline to a final concentration of 20 μg/ml to stimulate T-cell proliferation. Vidofludimus was added in dimethyl sulfoxide (DMSO, final concentration: 0.1 vol %) to final concentrations ranging from 20 nM to 50 μM. After incubation for 48 hours, cell proliferation was quantified using the “cell proliferation ELISA BrdU” (Roche) according to the manufacturer's instructions. Half maximal inhibition (IC50) was calculated using a 4-parameter sigmoidal curve fit.

[2] = human, in vivo
bone marrow = assay: Animal studies, effects on bone marrow; type: in vivo; conditions: animals treated with large doses
EGFR = EGFR (Homo sapiens, UniProt P00533); assay: Off-target activity on EGFR; conditions: in contrast to leflunomide and teriflunomide
Sequence of EGFR (P00533 25-1210, species assumed): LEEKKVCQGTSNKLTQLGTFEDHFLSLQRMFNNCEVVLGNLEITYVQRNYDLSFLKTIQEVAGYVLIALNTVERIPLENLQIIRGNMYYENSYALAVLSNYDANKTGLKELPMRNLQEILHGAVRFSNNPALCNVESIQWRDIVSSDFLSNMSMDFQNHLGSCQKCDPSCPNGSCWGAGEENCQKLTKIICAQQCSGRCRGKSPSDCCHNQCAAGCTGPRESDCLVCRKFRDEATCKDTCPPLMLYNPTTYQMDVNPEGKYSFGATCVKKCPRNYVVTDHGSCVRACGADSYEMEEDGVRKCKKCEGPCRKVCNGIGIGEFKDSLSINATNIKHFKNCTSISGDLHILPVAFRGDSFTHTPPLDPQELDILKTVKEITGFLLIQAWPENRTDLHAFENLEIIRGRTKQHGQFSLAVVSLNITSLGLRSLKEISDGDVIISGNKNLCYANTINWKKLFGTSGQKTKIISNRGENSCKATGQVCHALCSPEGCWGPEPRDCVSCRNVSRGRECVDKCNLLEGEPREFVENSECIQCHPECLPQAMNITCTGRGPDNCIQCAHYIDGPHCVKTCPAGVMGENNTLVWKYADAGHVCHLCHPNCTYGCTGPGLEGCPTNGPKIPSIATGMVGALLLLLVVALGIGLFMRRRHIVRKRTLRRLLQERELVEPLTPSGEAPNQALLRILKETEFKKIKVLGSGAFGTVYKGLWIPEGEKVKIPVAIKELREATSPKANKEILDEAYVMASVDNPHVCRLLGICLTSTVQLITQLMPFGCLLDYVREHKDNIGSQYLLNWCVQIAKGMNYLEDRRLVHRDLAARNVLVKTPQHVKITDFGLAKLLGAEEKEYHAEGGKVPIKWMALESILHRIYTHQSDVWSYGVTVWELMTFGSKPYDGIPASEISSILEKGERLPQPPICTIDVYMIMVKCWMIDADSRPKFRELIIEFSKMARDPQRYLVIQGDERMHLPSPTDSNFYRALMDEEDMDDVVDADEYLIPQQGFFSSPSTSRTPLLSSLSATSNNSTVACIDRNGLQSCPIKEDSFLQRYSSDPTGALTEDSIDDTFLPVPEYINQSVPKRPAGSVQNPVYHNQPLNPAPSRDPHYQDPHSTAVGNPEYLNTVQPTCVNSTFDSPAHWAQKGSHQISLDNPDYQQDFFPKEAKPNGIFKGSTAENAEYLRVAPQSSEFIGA

[3] = Clinical tolerability of repeated daily dosing; type: in vivo, human; conditions: clinical trials
[4] = test system: hyperactivated immune cells; assay: T-cell mediated cytokine production of hyperactivated immune cells; type: cell-based
in vitro [5] = conditions: human
in vitro [6] = conditions: African green monkey
[7] = Cytotoxicity in uninfected Vero 76 cells (neutral red); type: cell-based; conditions: African green monkey, Vero 76, day 5, neutral red, read-out: CC50: 50% cytotoxic concentration of compound without virus added
[8] = human, in vivo; remark: listed apart in the source
SARS-CoV-2 [9] = type: cell-based; conditions: CaCo-2 supernatants on Vero E6 monolayers, treatment setting
Vero 76 = assay: Cytotoxicity in Vero 76 cells (Table 4); conditions: Vero 76, 3 days post infection
[10] = Cytotoxicity in Vero 76 cells (Table 4); conditions: African green monkey
SARS-CoV-2 MUC-IMB-1 [11] = assay: microbe, parasite or virus in culture; type: cell-based; conditions: Severe acute respiratory syndrome coronavirus 2, Vero 76
SARS-CoV-2 MUC-IMB-1 [12] = assay: microbe, parasite or virus in culture; type: cell-based; conditions: Severe acute respiratory syndrome coronavirus 2, Caco-2
SARS-CoV-2 USA_WA1/2020 = assay: microbe, parasite or virus in culture; type: cell-based; conditions: Severe acute respiratory syndrome coronavirus 2, Vero 76
[13] = Cytotoxicity on HepG2 cells; conditions: human
mDHODH = mDHODH (Mus musculus, UniProt O35435); assay: mDHODH inhibition, in vitro protein; type: biochemical
Sequence of mDHODH (O35435 whole entry): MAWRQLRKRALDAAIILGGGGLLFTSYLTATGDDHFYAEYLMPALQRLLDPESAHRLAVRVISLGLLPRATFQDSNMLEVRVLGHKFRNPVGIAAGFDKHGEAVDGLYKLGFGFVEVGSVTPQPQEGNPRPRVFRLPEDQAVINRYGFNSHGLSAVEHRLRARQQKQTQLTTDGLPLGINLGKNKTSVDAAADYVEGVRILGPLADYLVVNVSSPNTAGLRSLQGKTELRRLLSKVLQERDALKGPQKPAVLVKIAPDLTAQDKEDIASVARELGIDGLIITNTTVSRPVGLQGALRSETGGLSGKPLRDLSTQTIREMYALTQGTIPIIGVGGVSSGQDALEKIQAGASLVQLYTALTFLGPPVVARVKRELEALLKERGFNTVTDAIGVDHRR

Lassa fever Arena virus = conditions: Plaque reduction, virus protein expression; A549 and Vero models; cited from earlier work
[14] = test system: HIV-191US005 (CCR5-tropic, Subtype B); conditions: cited from earlier work
SARS-CoV-2 [15] = assay: SARS-CoV-2 CPE inhibition (neutral red) in Vero 76 cells; type: cell-based; conditions: Severe acute respiratory syndrome coronavirus 2, Vero 76, 120 h, read-out: EC50: 50% effective antiviral concentration
[16] = test system: HCV sub genomic replicon of genotype 1b; conditions: cited from earlier work
[17] = test system: SARS-CoV-2 infection (COVID-19)
SARS-CoV-2 MUC-IMB-1 [18] = assay: microbe, parasite or virus in culture; type: cell-based; conditions: Severe acute respiratory syndrome coronavirus 2, Vero
in vitro [19] = conditions: African green monkey; remark: listed apart in the source
[20] = test system: SARS-CoV-2 infection (COVID-19); assay: Phase 2 placebo-controlled trial in hospitalized patients with moderate COVID-19; conditions: human, in vivo
[21] = Cytotoxicity on fibroblasts
[22] = in vivo; cited from earlier work

## CCC(CC)COC(=O)[C@H](C)N[P@](=O)(OC[C@H]1O[C@@](C#N)(c2ccc3c(N)ncnn23)[C@H](O)[C@@H]1O)Oc1ccccc1 [Remdesivir, remdesivir, reference compound]
SARS-CoV-2 [1]; remdesivir 1 μM alone
  Virus titer: 5.0 CCID50/ml
SARS-CoV-2 [1]; remdesivir 5 μM alone
  Virus titer: 1.7 CCID50/ml
SARS-CoV-2 [1]; remdesivir 10 μM alone
  Virus titer: <0.67 CCID50/ml

## COc1cccc(-c2ccc(NC(=O)C3=C(C(=O)O)CCC3)c(F)c2)c1 [Vidofludimus, 2-((3-fluoro-3′-methoxy-[1,1′-biphenyl]-4-yl)carbamoyl)cyclopent-1-enecarboxylic acid]
Auroroa-A kinases
  off-target activity on Aurora-A kinases: does not hit
Human T-cells
  IC50: 4.1 µM
[2]
  blood plasma half-life: 30 h
Bone marrow
  effects on bone marrow: lack detrimental effects on bone marrow
EGFR
  off-target activity on EGFR: does not hit

## COc1cccc(-c2ccc(NC(=O)C3=C(C(=O)O)CCC3)c(F)c2)c1 [IMU-838, 1-cyclopentene-1-carboxylic acid, 2-(((3-fluoro-3′-methoxy(1,1′-biphenyl)-4-yl)amino)carbonyl)-, calcium salt (2:1)]
SARS-CoV-2 [1]; IMU-838 1 μM alone
  Virus titer: 5.7 CCID50/ml
SARS-CoV-2 [1]; IMU-838 5 μM alone
  Virus titer: 5.7 CCID50/ml
SARS-CoV-2 [1]; IMU-838 10 μM alone
  Virus titer: 4.5 CCID50/ml
SARS-CoV-2 [1]; all other concentrations (5, 1 μM), alone
  reduction of virus titer: did not reduce virus titer
[3]
  tolerated repeated daily dosing: up to 50 mg
[4]
  T-cell mediated cytokine production: able to block
In vitro [5]
  CC50: > 60 µM
  CC90: > 60 µM
In vitro [6]
  CC50: 88 µM
[7]
  CC50 at 5 days: 7.9 µM
[8]
  plasma levels achieved in the blood of treated patients: 10 to 30 µM
SARS-CoV-2 [9]
  reduction of viral plaques: 58 fold
Vero 76
  drug concentrations with no cytotoxicity observed: up to 100 μM
[10]
  CC90 at 3 days: > 100 µM
SARS-CoV-2 MUC-IMB-1 [11]
  EC50: 10 µM
SARS-CoV-2 MUC-IMB-1 [12]
  EC50: 7.5 to 15 µM
  EC90: 15 to 30 µM
SARS-CoV-2 USA_WA1/2020
  EC90: 6.2 ± 1.9 µM
[13]
  IC50: > 50 µM
mDHODH
  IC50: 10 µM
Lassa fever Arena virus
  IC50: 2.8 µM
[14]; RT (reverse transcriptase)
  IC50: 2.2 µM
[14]; human PBMCs, reverse transcriptase activity and p24, read-out: median effective dose (ED50) HIV
  EC50: ~2 µM
[14]; p24
  IC50: 2 µM
SARS-CoV-2 [15]
  EC50: 6.1 µM
[16]; Huh7 cells, Luc activity readout, read-out: median ED50 HCV replicon
  EC50: 4.6 µM
[16]; Replicon, luciferase
  IC50: 4.6 µM
[17]; IMU-838 treated patients
  COVID-19 related adverse events with increased intensity: 7.1%
[17]; blood
  reduction of C-reactive protein (CRP) vs placebo: more effective reduction
[17]; day 7, FAS, 2×22.5 mg + standard-of-care
  proportion of patients reaching clinical recovery: 18.5%
[17]; day 14, FAS
  proportion of patients reaching clinical improvement (as assessed by the investigators): 42.7%
[17]; day 14 and day 28
  anti-viral effect by viral titers: anti-viral effect of IMU-838 on SARS-CoV-2 was observed
[17]; day 28, FAS
  proportion of patients reaching clinical improvement (as assessed by the investigators): 90.9%
  proportion of patients reaching clinical recovery: 71.3%
[17]; elderly patients (65 years or older), day 14, mFAS
  patients reaching WHO score improvement by two points: 36.4%
[17]; human, in vivo
  acceleration of 75% probability to reach clinical improvement (centrally calculated) vs placebo: 2.9 days
  acceleration of 75% probability to reach clinical improvement (investigator assessment) vs placebo: 3.8 days and 4.8 days
  reduction of D-dimer vs placebo: more effective reduction
  shortening of third patient quartile for duration of hospitalization vs placebo: 3.4 days
[17]; mFAS
  time to clinical improvement vs placebo: shorter
[17]; within the first 8 days after onset of symptoms, mFAS
  clinical improvement (centrally calculated) when used early: observed to be better
SARS-CoV-2 MUC-IMB-1 [18]
  EC50: 6.8 µM
In vitro [19]
  CC50: > 100 µM
[20]
  hematological effects of COVID19: did not intensify
  rate of infections and infestations and rate of liver events vs placebo: did not increase
  rate of serious adverse events and adverse events leading to treatment discontinuation vs placebo: not increased
[21]
  IC50: > 30 µM

## Cc1oncc1C(=O)Nc1ccc(C(F)(F)F)cc1 [leflunomide]
[22]
  blood plasma half-life: 384 to 456 h
  dosing time to achieve therapeutic trough levels: up to 2 months
